Test results reported in US20180291468A1, “MARKERS OF TUMOR CELL RESPONSE TO ANTI-CANCER THERAPY” (REGENERON PHARMACEUTICALS, INC., priority 2013, published 2018).

Experiments:
Type in all cases: in vivo
[1] = tested on: COLO 205 human colorectal cancer cells; assay: Drug efficacy in COLO 205 tumor-bearing mice (tumor burden)
Procedure: Immune compromised mice were injected with COLO 205 human colorectal cancer cells and tumors were allowed to develop, after which the mice were treated with either irinotecan or vehicle for 14 days. In a second control group, normal mice maintained in parallel but not bearing tumors were treated with either irinotecan or vehicle. […] During the course of drug treatment, blood plasma samples were taken from all mice at regular intervals from 3 to 14 days. RNA was prepared from the plasma samples and analyzed for miRNA content by a panel of quantitative PCR assays for approximately 700 miRNAs. The relative quantities of each miRNA assayed were normalized to the global mean in each sample and then compared between the paired groups: drug versus vehicle treatment in tumor-bearing mice; drug versus vehicle in tumor-free mice; and tumor bearing versus tumor-free mice. […]
We looked for miRNAs whose pattern of detection matched that in the mice treated with drug for 14 days. The pattern of quantification for these miRNAs—higher or lower in the drug treated mice compared to the vehicle treated controls—matched miRNAs from the 14 day time point. […] These 14 miRNAs form a signature of plasma miRNA content that correlates with drug efficacy late in the course of drug treatment and predicts efficacy early in the drug treatment regimen before any effects of irinotecan on tumor burden could be detected.

COLO 205 tumor = assay: Plasma miRNA profiling by qPCR panel in COLO 205 tumor-bearing mice, drug versus vehicle; details: for miRNAs different upon drug treatment: Higher: plasma, relative to a vehicle-treated control, 3 days, matching 14 day pattern
Procedure: (§1) Plasma samples (50 uL) were stored at −80° C. after receiving them. The samples were thawed on ice, and total RNA was isolated with the miRCURY RNA Isolation Kit for Biofluids (Exiqon) according to the supplied protocol (1 uL of Exiqon spike-in UniRT RNA mix was added to each sample before RNA isolation). RNA was eluted into 50 uL nuclease-free water, and either processed directly for cDNA synthesis of stored at −80° C. until that time. RNA from each sample was used to create cDNA in 40 uL reaction volume with the Universal cDNA Synthesis Kit II (Exiqon) according to the supplied protocol. RNA concentration for plasma samples is not quantitated; 8 uL each RNA sample is used without adjusting concentration. The 40 uL of cDNA per sample was then used to set-up qPCR directly or stored at −20° C. until use. The 40 uL cDNA was diluted into 4 mL of nuclease-free water, and then mixed with 4 mL 2X ExiLENT SYBR Green master mix (Exiqon) to create 8 mL qPCR mix, according to protocol supplied with miRNome Panels (Exiqon). The 8 ml master mix was then pipetted into the two 384-well plates (Exiqon microRNA Ready-to-Use PCR, Human panel I+II, V3.M), 10 ul per well according to the supplied protocol. The plates were briefly centrifuged, sealed, and run on the ABI Viia7 real time PCR thermocycler, using the PCR template program supplied by Exiqon. Results were exported as text files and then imported into the GenEx software (Exiqon) for analysis. Data pre-processing and analysis steps were performed according to the recommendations of the Exiqon Data Analysis Guide. Briefly, biological replicate were grouped, outliers were automatically detected and removed, Ct values higher than 37 were considered background and removed, missing data was filled by the GenEx software with an imputed value based on group mean. Cts for each sample were normalized to the global mean of all expressed miRNAs with a Ct<34.
Immune compromised mice were injected with COLO 205 human colorectal cancer cells and tumors were allowed to develop, after which the mice were treated with either irinotecan or vehicle for 14 days. In a second control group, normal mice maintained in parallel but not bearing tumors were treated with either irinotecan or vehicle. […] During the course of drug treatment, blood plasma samples were taken from all mice at regular intervals from 3 to 14 days. RNA was prepared from the plasma samples and analyzed for miRNA content by a panel of quantitative PCR assays for approximately 700 miRNAs. The relative quantities of each miRNA assayed were normalized to the global mean in each sample and then compared between the paired groups: drug versus vehicle treatment in tumor-bearing mice; drug versus vehicle in tumor-free mice; and tumor bearing versus tumor-free mice. Samples were taken from six replicate mice for each time point in each of the categories.
To eliminate those miRNA differences that were the result of drug treatment alone, we examined the miRNA profiles in the irinotecan treated normal, tumor-free mice compared with the same type of mice treated with vehicle.
We looked for miRNAs whose pattern of detection matched that in the mice treated with drug for 14 days. The pattern of quantification for these miRNAs—higher or lower in the drug treated mice compared to the vehicle treated controls—matched miRNAs from the 14 day time point. We found three miRNAs, miR-30d-3p, miR-483-5p, and miR-708-3p, that were elevated in the drug treated tumor bearing mice compared with the vehicle controls and 11 miRNAs, miR-21-3p, miR-101-5p, miR-122-3p, miR-197-3p, miR-429, miR-501-3p, miR-509-3p, miR-598, miR-206, miR-885-5p, and miR-1972, that were lower in the drug treated mice compared with the controls. These 14 miRNAs form a signature of plasma miRNA content that correlates with drug efficacy late in the course of drug treatment and predicts efficacy early in the drug treatment regimen before any effects of irinotecan on tumor burden could be detected. […]

A549 lung cancer tumor = assay: miRNA marker levels after A549 lung cancer tumor implantation and anti-tumor drug
Procedure: as §1

[2] = tested on: PC3M prostate cancer tumor; assay: miRNA marker levels after PC3M prostate cancer tumor implantation and anti-tumor drug
Procedure: as §1

[3] = three days, matched 14 day time point
[4] = three days following administration

In the case of `CCc1c2c(nc3ccc(OC(=O)N4CCC(N5CCCCC5)CC4)cc13)-c1cc3c(c(=O)n1C2)COC(=O)[C@]3(O)CC` [irinotecan], the “tumor burden in drug treated mice versus vehicle treated control group” value ([1]; after 14 days of drug treatment) is reported as “significantly lower tumor burden”, the “difference in tumor burden, drug versus vehicle” value ([1]; treated for only three days) is reported as “no significant difference in tumor burden” and the “detection of the 11 miRNAs in plasma of drug treated mice” value (COLO 205 tumor; detectable in the vehicle treated mice) is reported as “undetectable”. The “miRNAs different upon drug treatment: Higher” value (COLO 205 tumor; miR-483-5p) was “miR-483-5p”, the “miRNAs different upon drug treatment: Higher” value (COLO 205 tumor; miR-708-3p) was “miR-708-3p” and the “miRNAs different upon drug treatment: Higher” value (COLO 205 tumor; miR-30d-3p) was “miR-30d-3p”. For the same compound, the “plasma miR-21-3p, miR-101-5p, miR-122-3p, miR-197-3p, miR-429, miR-501-3p, miR-509-3p, miR-598, miR-206, miR-885-5p and miR-1972 in drug treated mice compared with controls” value (COLO 205 tumor; [3]) was “lower”, the “plasma miR-30d-3p, miR-483-5p and miR-708-3p in drug treated tumor bearing mice compared with vehicle controls” value (COLO 205 tumor; [3]) was “elevated” and the “detection of miR-30d-3p and miR-708-3p in plasma of treated tumor-bearing mice” value (COLO 205 tumor; tumor-bearing mice) was “went from undetected to detected”. For the same compound, the “plasma miR-483-5p in treated tumor-bearing mice” value (COLO 205 tumor; tumor-bearing mice) was “increased”.

With `N.N.[Cl][Pt][Cl]` [Cisplatin] the “particular miRNA marker levels upon administration to lung tumors (FIG. 2)” value (A549 lung cancer tumor; lung tumors (A549)) was “decrease”, the “level of certain miRNA markers that decrease upon tumor implantation (FIG. 3)” value (A549 lung cancer tumor; [4]) was “increase” and the “level of certain miRNA markers that increase upon tumor implantation (FIG. 1)” value (A549 lung cancer tumor; [4]) was “decrease”. The “level of miR-16-5p, miR-1208, miR-24-3p and miR-588 (FIG. 4)” value (A549 lung cancer tumor; [4]) was “increase”.

With `CC(=O)O[C@@]12CO[C@@H]1C[C@H](O)[C@@]1(C)C(=O)[C@H](O)C3=C(C)[C@@H](OC(=O)[C@H](O)[C@@H](NC(=O)OC(C)(C)C)c4ccccc4)C[C@@](O)([C@@H](OC(=O)c4ccccc4)[C@H]21)C3(C)C` [Docetaxel] the “level of certain miRNA markers that decrease upon tumor implantation (FIG. 7)” value ([2]; following administration) was “increase”, the “level of certain miRNA markers that increase upon tumor implantation (FIG. 5)” value ([2]; following administration) was “decrease” and the “level of miR-190, miR-153 and miR-92a-1 (FIG. 6)” value ([2]; following administration) was “decrease”. For the same compound, the “level of miR-634 and miR-647 (FIG. 8)” value ([2]; following administration) was “increase” and the “particular miRNA marker levels upon administration to prostate tumors (FIG. 2)” value ([2]; prostate tumors (PC3M)) was “decrease”.
